Test results published in US8551937B2, “Peptide having an extending action for half-life of object peptide in plasma” (priority 2008, dated 2013).
Where a SMILES comes first, the peptide text is derived from it.

Assay: Motilin immunoreactivity concentration in plasma, half-life after intravenous administration (Example 8)
Settings: male, SD, rat, in vivo, iv, 10 nmol/kg
Description: The experiment was carried out using rats into which polyethylene tube (PE-50 manufactured by Clay Adams) was inserted into thigh artery under an anesthetized condition with Nembutal. As to a test system, male SD strain rats (Nippon Charles River) of 7 weeks age were used where one group comprised 3 rats. Human motilin or a derivative thereof in a dose of 10 nmol/kg was administered into tail vein of the rat and the blood before the administration and until 60 minutes after the administration was periodically collected by a polyethylene tube inserted into the thigh artery. To the collected blood were added EDTA (manufactured by Dojin Laboratories) and aprotinin (manufactured by Bayer) as a stabilizer and an anti-coagulant, respectively and the plasma was separated therefrom by centrifugal separation. Motilin immunoreactivity concentration in plasma was measured by a competitive radioimmunoassay (RIA) (FIG. 8). At that time, a rabbit polyclonal antibody (#870623) which specifically recognizes the amino acid numbers 1 to 12 of native motilin shown by SEQ ID No: 102 was used as an antibody and, as a labeled compound, ^125I-[Tyr^7] human motilin was used.

| SMILES | half-life |
| --- | --- |
| CC[C@H](C)[C@H](NC(=O)[C@@H]1CCCN1C(=O)[C@@H](NC(=O)[C@@H](N)Cc1ccccc1)C(C)C)C(=O)N[C@@H](Cc1ccccc1)C(=O)N[C@H](C(=O)N[C@@H](Cc1ccc(O)cc1)C(=O)NCC(=O)N[C@@H](CCC(=O)O)C(=O)N[C@@H](CC(C)C)C(=O)N[C@@H](CCC(N)=O)C(=O)N[C@@H](CCCNC(=N)N)C(=O)N[C@H](C(=O)N[C@@H](CCC(N)=O)C(=O)N[C@@H](CCC(N)=O)C(=O)N[C@@H](CCCNC(=N)N)C(=O)N[C@@H](CCCCN)C(=O)NCC(=O)NCC(=O)N[C@@H](CCC(=O)O)C(=O)N[C@@H](CO)C(=O)NCC(=O)N[C@@H](CCCCN)C(=O)N[C@@H](CCCCN)C(=O)N1CCC[C@H]1C(=O)N1CCC[C@H]1C(=O)N[C@@H](C)C(=O)N[C@@H](CCCCN)C(=O)N[C@@H](CC(C)C)C(=O)N[C@@H](CCC(N)=O)C(=O)N1CCC[C@H]1C(=O)N[C@@H](CCCNC(=N)N)C(=O)O)C(C)C)[C@@H](C)O [Chimeric motilin (III) (MG-i17G2-19iG)] (H-FVPIFTYGELQRVQQRKGGESGKKPPAKLQPR-OH; N-terminus and C-terminus assumed) | 10.7 min |
| CC[C@H](C)[C@H](NC(=O)[C@H](CCSC)NC(=O)[C@H](CCCCN)NC(=O)[C@H](CCCCN)NC(=O)[C@H](CO)NC(=O)[C@H](CCC(=O)O)NC(=O)[C@H](CCCCN)NC(=O)[C@H](CCCNC(=N)N)NC(=O)[C@H](CCC(N)=O)NC(=O)[C@H](CCC(N)=O)NC(=O)[C@@H](NC(=O)[C@H](CCCNC(=N)N)NC(=O)[C@H](CCC(N)=O)NC(=O)[C@H](CC(C)C)NC(=O)[C@H](CCC(=O)O)NC(=O)CNC(=O)[C@H](Cc1ccc(O)cc1)NC(=O)[C@@H](NC(=O)[C@H](Cc1ccccc1)NC(=O)[C@@H](NC(=O)[C@@H]1CCCN1C(=O)[C@@H](NC(=O)[C@@H](N)Cc1ccccc1)C(C)C)[C@@H](C)CC)[C@@H](C)O)C(C)C)C(=O)N[C@H](C(=O)N[C@H](C(=O)N[C@@H](CCCNC(=N)N)C(=O)O)[C@@H](C)CC)[C@@H](C)O [Chimeric motilin (IX)(MG-dPPS)] (H-FVPIFTYGELQRVQQRKESKKMITIR-OH; N-terminus and C-terminus assumed) | 4.39 min |
| CC[C@H](C)[C@H](NC(=O)[C@@H]1CCCN1C(=O)[C@@H](NC(=O)[C@@H](N)Cc1ccccc1)C(C)C)C(=O)N[C@@H](Cc1ccccc1)C(=O)N[C@H](C(=O)N[C@@H](Cc1ccc(O)cc1)C(=O)NCC(=O)N[C@@H](CCC(=O)O)C(=O)N[C@@H](CC(C)C)C(=O)N[C@@H](CCC(N)=O)C(=O)N[C@@H](CCCNC(=N)N)C(=O)N[C@H](C(=O)N[C@@H](CCC(N)=O)C(=O)N[C@@H](CCC(N)=O)C(=O)N[C@@H](CCCNC(=N)N)C(=O)N[C@@H](CCCCN)C(=O)N[C@@H](CCC(=O)O)C(=O)N[C@@H](CCCCN)C(=O)N[C@@H](CCCCN)C(=O)N1CCC[C@H]1C(=O)N1CCC[C@H]1C(=O)N[C@@H](C)C(=O)N[C@@H](CCCCN)C(=O)N[C@@H](CC(C)C)C(=O)N[C@@H](CCC(N)=O)C(=O)N1CCC[C@H]1C(=O)N[C@@H](CCCNC(=N)N)C(=O)O)C(C)C)[C@@H](C)O [Chimeric motilin (N)(MG-dS)] (H-FVPIFTYGELQRVQQRKEKKPPAKLQPR-OH; N-terminus and C-terminus assumed) | 9.12 min |
| CC[C@H](C)[C@H](NC(=O)[C@@H]1CCCN1C(=O)[C@@H](NC(=O)[C@@H](N)Cc1ccccc1)C(C)C)C(=O)N[C@@H](Cc1ccccc1)C(=O)N[C@H](C(=O)N[C@@H](Cc1ccc(O)cc1)C(=O)NCC(=O)N[C@@H](CCC(=O)O)C(=O)N[C@@H](CC(C)C)C(=O)N[C@@H](CCC(N)=O)C(=O)N[C@@H](CCCNC(=N)N)C(=O)N[C@H](C(=O)N[C@@H](CCC(N)=O)C(=O)N[C@@H](CCC(N)=O)C(=O)N[C@@H](CCCNC(=N)N)C(=O)N[C@@H](CCCCN)C(=O)N[C@@H](CCC(=O)O)C(=O)N[C@H](C(=O)N[C@@H](CCCCN)C(=O)N[C@@H](CCCCN)C(=O)N1CCC[C@H]1C(=O)N1CCC[C@H]1C(=O)N[C@@H](C)C(=O)N[C@@H](CCCCN)C(=O)N[C@@H](CC(C)C)C(=O)N[C@@H](CCC(N)=O)C(=O)N1CCC[C@H]1C(=O)N[C@@H](CCCNC(=N)N)C(=O)O)[C@@H](C)O)C(C)C)[C@@H](C)O [Chimeric motilin (P)(MG-18S/T)] (H-FVPIFTYGELQRVQQRKETKKPPAKLQPR-OH; N-terminus and C-terminus assumed) | 9.67 min |
| CC[C@H](C)[C@H](NC(=O)[C@@H]1CCCN1C(=O)[C@@H](NC(=O)[C@@H](N)Cc1ccccc1)C(C)C)C(=O)N[C@@H](Cc1ccccc1)C(=O)N[C@H](C(=O)N[C@@H](Cc1ccc(O)cc1)C(=O)NCC(=O)N[C@@H](CCC(=O)O)C(=O)N[C@@H](CC(C)C)C(=O)N[C@@H](CCC(N)=O)C(=O)N[C@@H](CCCNC(=N)N)C(=O)N[C@H](C(=O)N[C@@H](CCC(N)=O)C(=O)N[C@@H](CCC(N)=O)C(=O)N[C@@H](CCCNC(=N)N)C(=O)N[C@@H](CCCCN)C(=O)N[C@@H](CCC(=O)O)C(=O)N1CCC[C@H]1C(=O)N[C@@H](CCCCN)C(=O)N[C@@H](CCCCN)C(=O)N1CCC[C@H]1C(=O)N1CCC[C@H]1C(=O)N[C@@H](C)C(=O)N[C@@H](CCCCN)C(=O)N[C@@H](CC(C)C)C(=O)N[C@@H](CCC(N)=O)C(=O)N1CCC[C@H]1C(=O)N[C@@H](CCCNC(=N)N)C(=O)O)C(C)C)[C@@H](C)O [Chimeric motilin (Q)(MG-18S/P)] (H-FVPIFTYGELQRVQQRKEPKKPPAKLQPR-OH; N-terminus and C-terminus assumed) | 9.65 min |

More lines, now with the values ahead:

| half-life | SMILES |
| --- | --- |
| 7.73 min | CC[C@H](C)[C@H](NC(=O)[C@@H]1CCCN1C(=O)[C@@H](NC(=O)[C@@H](N)Cc1ccccc1)C(C)C)C(=O)N[C@@H](Cc1ccccc1)C(=O)N[C@H](C(=O)N[C@@H](Cc1ccc(O)cc1)C(=O)NCC(=O)N[C@@H](CCC(=O)O)C(=O)N[C@@H](CC(C)C)C(=O)N[C@@H](CCC(N)=O)C(=O)N[C@@H](CCCNC(=N)N)C(=O)N[C@H](C(=O)N[C@@H](CCC(N)=O)C(=O)N[C@@H](CCC(N)=O)C(=O)N[C@@H](CCCNC(=N)N)C(=O)N[C@@H](CCCCN)C(=O)N[C@@H](CCC(=O)O)C(=O)N[C@@H](Cc1ccccc1)C(=O)N[C@@H](CCCCN)C(=O)N[C@@H](CCCCN)C(=O)N1CCC[C@H]1C(=O)N1CCC[C@H]1C(=O)N[C@@H](C)C(=O)N[C@@H](CCCCN)C(=O)N[C@@H](CC(C)C)C(=O)N[C@@H](CCC(N)=O)C(=O)N1CCC[C@H]1C(=O)N[C@@H](CCCNC(=N)N)C(=O)O)C(C)C)[C@@H](C)O [Chimeric motilin (O)(MG-18S/F)] (H-FVPIFTYGELQRVQQRKEFKKPPAKLQPR-OH; N-terminus and C-terminus assumed) |
| 9.13 min | CC[C@H](C)[C@H](NC(=O)[C@@H]1CCCN1C(=O)[C@@H](NC(=O)[C@@H](N)Cc1ccccc1)C(C)C)C(=O)N[C@@H](Cc1ccccc1)C(=O)N[C@H](C(=O)N[C@@H](Cc1ccc(O)cc1)C(=O)NCC(=O)N[C@@H](CCC(=O)O)C(=O)N[C@@H](CC(C)C)C(=O)N[C@@H](CCC(N)=O)C(=O)N[C@@H](CCCNC(=N)N)C(=O)N[C@H](C(=O)N[C@@H](CCC(N)=O)C(=O)N[C@@H](CCC(N)=O)C(=O)N[C@@H](CCCNC(=N)N)C(=O)N[C@@H](CCCCN)C(=O)N[C@@H](CCC(=O)O)C(=O)N[C@@H](CC(C)C)C(=O)N[C@@H](CCCCN)C(=O)N[C@@H](CCCCN)C(=O)N1CCC[C@H]1C(=O)N1CCC[C@H]1C(=O)N[C@@H](C)C(=O)N[C@@H](CCCCN)C(=O)N[C@@H](CC(C)C)C(=O)N[C@@H](CCC(N)=O)C(=O)N1CCC[C@H]1C(=O)N[C@@H](CCCNC(=N)N)C(=O)O)C(C)C)[C@@H](C)O [Chimeric motilin (R)(MG-18S/L)] (H-FVPIFTYGELQRVQQRKELKKPPAKLQPR-OH; N-terminus and C-terminus assumed) |
| 9.29 min | CC[C@H](C)[C@H](NC(=O)[C@@H]1CCCN1C(=O)[C@@H](NC(=O)[C@@H](N)Cc1ccccc1)C(C)C)C(=O)N[C@@H](Cc1ccccc1)C(=O)N[C@H](C(=O)N[C@@H](Cc1ccc(O)cc1)C(=O)NCC(=O)N[C@@H](CCC(=O)O)C(=O)N[C@@H](CC(C)C)C(=O)N[C@@H](CCC(N)=O)C(=O)N[C@@H](CCCNC(=N)N)C(=O)N[C@H](C(=O)N[C@@H](CCC(N)=O)C(=O)N[C@@H](CCC(N)=O)C(=O)N[C@@H](CCCNC(=N)N)C(=O)N[C@@H](CCCCN)C(=O)N[C@@H](CCC(=O)O)C(=O)N[C@@H](C)C(=O)N[C@@H](CCCCN)C(=O)N[C@@H](CCCCN)C(=O)N1CCC[C@H]1C(=O)N1CCC[C@H]1C(=O)N[C@@H](C)C(=O)N[C@@H](CCCCN)C(=O)N[C@@H](CC(C)C)C(=O)N[C@@H](CCC(N)=O)C(=O)N1CCC[C@H]1C(=O)N[C@@H](CCCNC(=N)N)C(=O)O)C(C)C)[C@@H](C)O [Chimeric motilin (S)(MG-18S/A)] (H-FVPIFTYGELQRVQQRKEAKKPPAKLQPR-OH; N-terminus and C-terminus assumed) |

Same assay, conditions: rat, in vivo, iv, 10 nmol/kg

| half-life | SMILES |
| --- | --- |
| 7.73 min | CC[C@H](C)[C@H](NC(=O)[C@@H]1CCCN1C(=O)[C@@H](NC(=O)[C@@H](N)Cc1ccccc1)C(C)C)C(=O)N[C@@H](Cc1ccccc1)C(=O)N[C@H](C(=O)N[C@@H](Cc1ccc(O)cc1)C(=O)NCC(=O)N[C@@H](CCC(=O)O)C(=O)N[C@@H](CC(C)C)C(=O)N[C@@H](CCC(N)=O)C(=O)N[C@@H](CCCNC(=N)N)C(=O)N[C@H](C(=O)N[C@@H](CCC(N)=O)C(=O)N[C@@H](CCC(N)=O)C(=O)N[C@@H](CCCNC(=N)N)C(=O)N[C@@H](CCCCN)C(=O)N[C@@H](CCC(=O)O)C(=O)N[C@@H](CO)C(=O)N[C@@H](CCCCN)C(=O)N[C@@H](CCCCN)C(=O)N[C@@H](C)C(=O)N[C@@H](CCCCN)C(=O)N[C@@H](CC(C)C)C(=O)N[C@@H](CCC(N)=O)C(=O)N1CCC[C@H]1C(=O)N[C@@H](CCCNC(=N)N)C(=O)O)C(C)C)[C@@H](C)O [Chimeric motilin (IV)(MG-dPP)] (H-FVPIFTYGELQRVQQRKESKKAKLQPR-OH; N-terminus and C-terminus assumed) |
